row,Structure (SMILES),melting point
1,"CC(=O)Nc1ccc(C#Cc2ccc(OC3CN4CCC3CC4)nn2)cc1 (racemic) [Compound C6, (±)-N-{4-[6-(1-Aza-bicyclo[2.2.2]oct-3-yloxy)-pyridazin-3-ylethynyl]-phenyl}-acetamide free base]",169.5 to 175.4 °C
2,"Nc1cccc(C#Cc2ccc(OC3CN4CCC3CC4)nn2)c1 (racemic) [Compound C7, (±)-3-[6-(1-Aza-bicyclo[2.2.2]oct-3-yloxy)-pyridazin-3-ylethynyl]-phenylamine free base]",152.4 to 158.1 °C
3,"Nc1ccc(C#Cc2ccc(OC3CN4CCC3CC4)nn2)cc1 (racemic) [Compound C8, (±)-4-[6-(1-Aza-bicyclo[2.2.2]oct-3-yloxy)-pyridazin-3-ylethynyl]-phenylamine free base]",212 to 220 °C

# Other lines, results leading:
row,melting point,Structure (SMILES)
1,126.9 to 127.3 °C,C(#Cc1ccc(OC2CN3CCC2CC3)cc1)c1ccccc1.O=C(O)/C=C/C(=O)O (racemic)
2,133.9 to 141.6 °C,"C(#Cc1ccc(OC2CN3CCC2CC3)nn1)c1ccsc1.O=C(O)/C=C/C(=O)O (racemic) [Compound C10, (±)-3-(6-Thiophen-3-ylethynyl-pyridazin-3-yloxy)-1-aza-bicyclo[2.2.2]octane fumaric acid salt]"
